Source: patent US10766890B2, “Hepatitis B core protein modulators” (Assembly Biosciences, Inc., priority 2015, dated 2020)

What was measured:
[1] = system: HBV; experiment: Viral load production in AD38 cells, quantitative PCR of the core sequence in supernatant; format: cell-based; conditions: 10 μM compound, 6 days at 37° C., supernatant qPCR vs DMSO control; for activity at 10 µM: Hepatitis B virus, 144 h, read-out: AD38 Viral Load (%) (VL with cmpd/VL in DMSO control) at 10 μM
Description: (§1) Example 63: Assay Measuring Activity of Compounds on Viral Production in and on Viability of AD38 Cells
(§2) AD38 cells were then re-suspended with 10 mL of Treatment Medium and counted. Wells of a collagen coated 96-well NUNC microtiter plate were seeded at 50,000/well in 180 μL of Treatment Medium, and 20 μL of in treatment media with either 10% DMSO (Control) or a 10× solution of compound in 10% DMSO was added. Plates were incubated for 6 days at 37° C.
Viral load production was assayed by quantitative PCR of the core sequence. […] The PCR mixture was incubated at 45° C. for 5 minutes, then 95° C. for 10 min, followed by 40 cycles of 10 seconds at 95° C. and 20 seconds at 60° C. Viral load was quantitated against known standards by using ViiA™ 7 Software. Viral load in the supernatant from wells with treated cells were compared against viral load in supernatant from DMSO control wells (≥3 per plate).

[2] = system: AD38 cells; experiment: Viability of AD38 cells, Promega CellTiter-Glo; format: cell-based; conditions: 10 μM compound, 6 days, CellTiter-Glo luminescence, controls being 100%
Description: as §1, §2
At the end of compound treatment period cell viability was assessed using a Promega CellTiter-Glo protocol. All supernatant was removed the previously treated 96-well microtiter plate, and 50 μL Tetracycline-free treatment medium (DMEM/F12 (1:1), 1×Pen/step (cat#: 30-002-CL, Mediatech, Inc), with 2% FBS, Tet-system approved (cat#: 631106, Clontech), and 1% DMSO was added back to each well. Another 50 μL of CellTiter-Glo reagent solution (Promega, G7573) was then added at room temperature and the contents mixed for 2 minutes on an orbital shaker to induce cell lysis. This was followed by incubation at room temperature for 10 minutes to stabilize the luminescent signal. The luminescence was recorded for 0.2 seconds per well on a Tecan multimode platereader (Infinite M1000 pro). The luminescent signal from each well was normalized against that of untreated (DMSO) control wells. All results in Table 3 were reported with percent viability (with controls being 100%).

SMILES	activity at 10 µM [1] [%]	AD38 Viability Normalized Result (cmpd/DMSO %) at 10 μM [2] [%]	AD38 Viral Load (%) (VL with cmpd/VL in DMSO control) at 10 μM [1]
O=C(NCc1cccc(Oc2cccc(O)c2)c1)c1ccc2c(c1)NC(=O)c1ccccc1O2 [Compound 744, N-(3-(3-hydroxyphenoxy)benzyl)-11-oxo-10,11-dihydrodibenzo[b,f][1,4]oxazepine-8-carboxamide]	62.9	108	–
COc1cccc(Oc2cccc(CNC(=O)c3ccc4c(c3)NC(=O)c3ccccc3O4)c2)c1 [Compound 744-A, N-(3-(3-methoxyphenoxy)benzyl)-11-oxo-10,11-dihydrodibenzo[b,f][1,4]oxazepine-8-carboxamide]	8.9	103	–
O=C(NCc1cccc(Oc2ccc(O)cc2)c1)c1ccc2c(c1)NC(=O)c1ccccc1O2 [Compound 745, N-(3-(4-hydroxyphenoxy)benzyl)-11-oxo-10,11-dihydrodibenzo[b,f][1,4]oxazepine-8-carboxamide]	38.7	108	–
COc1ccc(Oc2cccc(CNC(=O)c3ccc4c(c3)NC(=O)c3ccccc3O4)c2)cc1 [Compound 745-A, N-(3-(4-methoxyphenoxy)benzyl)-11-oxo-10,11-dihydrodibenzo[b,f][1,4]oxazepine-8-carboxamide]	16.1	92	–
NC(=O)c1ccc(-c2ccc(CNC(=O)c3ccc4c(c3)NC(=O)c3ccccc3S4(=O)=O)cc2)cc1 [Compound 765]	–	103	59.4
O=C(NCc1cccc(-c2ccc(O)cc2)c1)c1ccc2c(c1)NC(=O)c1ccccc1S2(=O)=O [Compound 773]	0.6	87	–
O=C(NCc1cccc(-c2cccc(O)c2)c1)c1ccc2c(c1)NC(=O)c1ccccc1S2(=O)=O [Compound 774]	48.5	113	–
COc1ccc(-c2ccc(CNC(=O)c3ccc4c(c3)NC(=O)c3ccccc3S4(=O)=O)cc2)cn1 [Compound 775, N-(4-(6-methoxypyridin-3-yl)benzyl)-11-oxo-10,11-dihydrodibenzo[b,f][1,4]thiazepine-8-carboxamide 5,5-dioxide]	2.6	93	–
O=C(NCc1ccc(-c2ccc(O)nc2)cc1)c1ccc2c(c1)NC(=O)c1ccccc1S2(=O)=O [Compound 776, N-(4-(6-hydroxypyridin-3-yl)benzyl)-11-oxo-10,11-dihydrodibenzo[b,f][1,4]thiazepine-8-carboxamide 5,5-dioxide]	63.1	100	–
Nc1ncc(-c2ccc(CNC(=O)c3ccc4c(c3)NC(=O)c3ccccc3S4(=O)=O)cc2)cn1 [Compound 777]	11.7	99	–
O=C(NCc1cccc(Cc2cccc(O)c2)c1)c1ccc2c(c1)NC(=O)c1ccccc1S2(=O)=O [Compound 808, N-(3-(3-hydroxybenzyl)benzyl)-11-oxo-10,11-dihydrodibenzo[b,f][1,4]thiazepine-8-carboxamide 5,5-dioxide]	3	90	–
COc1cccc(Cc2cccc(CNC(=O)c3ccc4c(c3)NC(=O)c3ccccc3S4(=O)=O)c2)c1 [Compound 808-A, N-(3-(3-methoxybenzyl)benzyl)-11-oxo-10,11-dihydrodibenzo[b,f][1,4]thiazepine-8-carboxamide 5,5-dioxide]	1.5	84	–
O=C(NCc1cccc(Cc2ccc(O)cc2)c1)c1ccc2c(c1)NC(=O)c1ccccc1S2(=O)=O [Compound 809, N-(3-(4-hydroxybenzyl)benzyl)-11-oxo-10,11-dihydrodibenzo[b,f][1,4]thiazepine-8-carboxamide 5,5-dioxide]	1.1	77	–
COc1ccc(Cc2cccc(CNC(=O)c3ccc4c(c3)NC(=O)c3ccccc3S4(=O)=O)c2)cc1 [Compound 809-A, N-(3-(4-methoxybenzyl)benzyl)-11-oxo-10,11-dihydrodibenzo[b,f][1,4]thiazepine-8-carboxamide 5,5-dioxide]	0.6	85	–
O=C(NCc1cccc(Oc2cccc(O)c2)c1)c1ccc2c(c1)NC(=O)c1ccccc1S2(=O)=O [Compound 810, N-(3-(3-hydroxyphenoxy)benzyl)-11-oxo-10,11-dihydrodibenzo[b,f][1,4]thiazepine-8-carboxamide 5,5-dioxide]	3.2	93	–
COc1cccc(Oc2cccc(CNC(=O)c3ccc4c(c3)NC(=O)c3ccccc3S4(=O)=O)c2)c1 [Compound 810-A, N-(3-(3-methoxyphenoxy)benzyl)-11-oxo-10,11-dihydrodibenzo[b,f][1, 4]thiazepine-8-carboxamide 5,5-dioxide]	1.1	90	–
O=C(NCc1cccc(Oc2ccc(O)cc2)c1)c1ccc2c(c1)NC(=O)c1ccccc1S2(=O)=O [Compound 811, N-(3-(4-hydroxyphenoxy)benzyl)-11-oxo-10,11-dihydrodibenzo[b,f][1,4]thiazepine-8-carboxamide 5,5-dioxide]	1.2	95	–
COc1ccc(Oc2cccc(CNC(=O)c3ccc4c(c3)NC(=O)c3ccccc3S4(=O)=O)c2)cc1 [Compound 811-A, N-(3-(4-methoxyphenoxy)benzyl)-11-oxo-10,11-dihydrodibenzo[b,f][1,4]thiazepine-8-carboxamide 5,5-dioxide]	1.9	86	–
O=C(NCc1cccc(Sc2cccc(O)c2)c1)c1ccc2c(c1)NC(=O)c1ccccc1S2(=O)=O [Compound 812, N-(3-((3-hydroxyphenyl)thio)benzyl)-11-oxo-10,11-dihydrodibenzo[b,f][1,4]thiazepine-8-carboxamide 5,5-dioxide]	5.1	99	–
COc1cccc(Sc2cccc(CNC(=O)c3ccc4c(c3)NC(=O)c3ccccc3S4(=O)=O)c2)c1 [Compound 812-A, N-(3-((3-methoxyphenyl)thio)benzyl)-11-oxo-10,11-dihydrodibenzo[b,f][1,4]thiazepine-8-carboxamide 5,5-dioxide]	1.4	66	–
COc1ccc(Sc2cccc(CNC(=O)c3ccc4c(c3)NC(=O)c3ccccc3S4(=O)=O)c2)cc1 [Compound 813, N-(3-((4-methoxyphenyl)thio)benzyl)-11-oxo-10,11-dihydrodibenzo[b,f][1,4]thiazepine-8-carboxamide 5,5-dioxide]	1.2	44	–
